Tests used:
Format in all cases: functional
Ovis aries [1] = assay: Antiparasitic activity against Trichostrongylus axei at dose of 0.04 mg/kg in sheep anthelmintic test
Ovis aries [2] = assay: Antiparasitic activity against Oesophagostomum columbianum at dose of 0.04 mg/kg in sheep anthelmintic test
Ovis aries [3] = assay: Antiparasitic activity against Trichostrongylus colubriformis at dose of 0.04 mg/kg in sheep anthelmintic test
Ovis aries [4] = assay: Antiparasitic activity against Ostertagia circumcincta at dose of 0.04 mg/kg in sheep anthelmintic test
Ovis aries [5] = assay: Antiparasitic activity against Haemonchus contortus at dose of 0.04 mg/kg in sheep anthelmintic test
Ovis aries [6] = assay: Antiparasitic activity against Cooperia […] at dose of 0.04 mg/kg in sheep anthelmintic test
Artemia = assay: In vitro antiparasitic activity in brine shrimp assay
Ovis aries [7] = assay: Antiparasitic activity against Trichostrongylus axei at dose of 0.08 mg/kg in sheep anthelmintic test
Ovis aries [8] = assay: Antiparasitic activity against Trichostrongylus colubriformis at dose of 0.08 mg/kg in sheep anthelmintic test
Ovis aries [9] = assay: Antiparasitic activity against Ostertagia circumcincta at dose of 0.08 mg/kg in sheep anthelmintic test
Ovis aries [10] = assay: Antiparasitic activity against Oesophagostomum columbianum at dose of 0.08 mg/kg in sheep anthelmintic test
Ovis aries [11] = assay: Antiparasitic activity against Haemonchus contortus at dose of 0.08 mg/kg in sheep anthelmintic test
Ovis aries [12] = assay: Antiparasitic activity against Cooperia […] at dose of 0.08 mg/kg in sheep anthelmintic test
Ovis aries [13] = assay: Antiparasitic activity against Haemonchus contortus at dose of 0.05 mg/kg in sheep anthelmintic test
Ovis aries [14] = assay: Antiparasitic activity against Trichostrongylus colubriformis at dose of 0.05 mg/kg in sheep anthelmintic test
Ovis aries [15] = assay: Antiparasitic activity against Oesophagostomum columbianum at dose of 0.05 mg/kg in sheep anthelmintic test
Ovis aries [16] = assay: Antiparasitic activity against Ostertagia circumcincta at dose of 0.05 mg/kg in sheep anthelmintic test
Ovis aries [17] = assay: Antiparasitic activity against Cooperia oncophora at dose of 0.05 mg/kg in sheep anthelmintic test
Ovis aries [18] = assay: Antiparasitic activity against Cooperia […] at dose of 0.05 mg/kg in sheep anthelmintic test
Ovis aries [19] = assay: Antiparasitic activity against Trichostrongylus axei at dose of 0.05 mg/kg in sheep anthelmintic test

**Q.** Which Reduction (Ovis aries [1]) does the source give for `CCC(C)[C@H]1O[C@]2(C=C[C@@H]1C)C[C@@H]1C[C@@H](C/C=C(\C)[C@@H](O[C@H]3C[C@H](OC)[C@@H](O[C@H]4C[C@H](OC)[C@H](N(C)C)[C@H](C)O4)[C@H](C)O3)[C@@H](C)/C=C/C=C3\CO[C@@H]4[C@H](O)C(C)=C[C@@H](C(=O)O1)[C@]34O)O2` (some centres not stated) here?
**A.** <50%

**Q.** And the Reduction (Ovis aries [2])?
**A.** >95%

**Q.** And the Reduction (Ovis aries [3])?
**A.** 51%

**Q.** What about the Reduction (Ovis aries [4]) of the same compound?
**A.** >95%

**Q.** And the Reduction (Ovis aries [5])?
**A.** >95%

**Q.** What about the Reduction (Ovis aries [6]) of the same compound?
**A.** 51%

**Q.** What about the IC100 (Artemia) of the same compound?
**A.** 1300 ng/mL

**Q.** Which results are given for `CCC(C)[C@H]1O[C@]2(C=C[C@@H]1C)C[C@@H]1C[C@@H](C/C=C(\C)[C@@H](O[C@H]3C[C@H](OC)[C@@H](O[C@H]4C[C@H](OC)/C(=N\NC(N)=O)[C@H](C)O4)[C@H](C)O3)[C@@H](C)/C=C/C=C3\CO[C@@H]4[C@H](O)C(C)=C[C@@H](C(=O)O1)[C@]34O)O2` (some centres not stated)?
**A.** Reduction (Ovis aries [7]): >95%; Reduction (Ovis aries [8]): >95%; Reduction (Ovis aries [9]): >95%; Reduction (Ovis aries [10]): >95%; Reduction (Ovis aries [11]): >95%; Reduction (Ovis aries [12]): <50%; IC100 (Artemia): 650 ng/mL

**Q.** Which results are given for `CCC(C)[C@H]1O[C@]2(C=C[C@@H]1C)C[C@@H]1C[C@@H](C/C=C(\C)[C@@H](O[C@H]3C[C@H](OC)[C@@H](O[C@H]4C[C@H](OC)[C@H](NC(C)C)[C@H](C)O4)[C@H](C)O3)[C@@H](C)/C=C/C=C3\CO[C@@H]4[C@H](O)C(C)=C[C@@H](C(=O)O1)[C@]34O)O2` (some centres not stated)?
**A.** Reduction (Ovis aries [13]): 76%; Reduction (Ovis aries [14]): 51%; Reduction (Ovis aries [15]): >95%; Reduction (Ovis aries [16]): <50%; Reduction (Ovis aries [17]): 51%; IC100 (Artemia): 1730 ng/mL; Reduction (Ovis aries [18]): 51%; Reduction (Ovis aries [19]): <50%

— ChEMBL document CHEMBL1128617, “4-Deoxy-4-aminoavermectins with potent broad spectrum antiparasitic activities” (1995)
